From article PMC12120022, “Discovery and chemical optimisation of a potent, Bi-cyclic antimicrobial inhibitor of Escherichia coli PBP3” (Communications Biology, 2025)
Converted amounts (≈) assume the structure as drawn. Where two headings read alike, the source gives them in different places.

What was measured:
EcPBP3 [1] = biological target: T1, EcPBP3 (Escherichia coli, UniProt P0AD68); assay: Fluorescence polarisation competition assay with BOCILLIN-FL as tracer; assay type: binding; conditions: competition format, NB, non-binder (100 μM top concentration)
T1 construct: For assays, selections and SPR a construct with residues 60–588 which has the N-terminal domain, but not the transmembrane helix, was used; made in house

EcPBP3 [2] = biological target: T1, EcPBP3; assay: Fluorescence polarisation competition assay with fluorescent Bicycle tracer (tracer 1 / BCY12820); assay type: binding; conditions: protein 9.4 nM sets sensitivity limit, top concentration 5 µM, read-out: Ki (nM) by fluorescence polarisation with tracer 1 (BCY12820 as tracer), Geometric mean (Lower 95% CI; Upper 95% CI, n=number of values)
Summary of the method: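 Unlabelled peptide competes with fluorescent Bicycle tracer (1 nM, as added) for EcPBP3 (9.4 nM, as added) in 10 mM HEPES, 2% glycerol, 300 mM NaCl, pH 8.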

EcPBP3 [3] = biological target: T1, EcPBP3; assay: SPR binding assay on immobilised EcPBP3; conditions: 37 °C, kinetic fitting; NB = no binding at 2500 nM (Tables S-4, S-5) or 5000 nM (Table 1); read-out: Kd (nM) by SPR (geomean)
Summary of the method: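 EcPBP3 amine-coupled to CM5 chip (1500-2500 RU); compounds injected at 37 °C in 10 mM HEPES pH 8.0, 200 mM NaCl, 0.05% Tween-20, 2% DMSO, 50 μL min^–1, 150 s contact, 2400 s dissociation. Double-referenced sensorgrams kinetically fitted for Kd; geometric mean of ≥2 biological replicates.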

E. coli GKCW101 (WT) = conditions: caMHB; biological replicates or their range
Method: (§1) To evaluate the engagement of EcPBP3 by a bicyclic peptide in whole cells lacking the outer membrane permeability barrier, peptides were screened in ‘hyperporinated’ E. coli strains in which a constitutively open FhuA pore (FhuAΔC/Δ4L, lacking N-terminal cork domain and external loops) was chromosomally expressed under control of an arabinose-inducible promoter.
(§2) Minimal inhibition concentration (MIC) assays were performed in accordance with CLSI standards, using cation-adjusted Mueller Hinton broth (caMHB; Sigma Aldrich) unless otherwise specified. Induction of pore expression in hyperporinated strains E. coli GKCW101 and GKCW102 was performed by addition of 0.1% (w/v) L-arabinose to cultures at OD600 ~ 0.3, with caMHB as the culture medium.

E. coli GKCW102 (EcPore) = conditions: caMHB, biological replicates or their range
Method: as §1, §2

E. coli ATCC 25922 = assay: MIC, wild-type strain; assay type: cell-based, Escherichia coli; conditions: for MIC E. coli ATCC 25922: MHB, biological replicates or their range
Method: as §2

PBPs in E. coli = assay: Bocillin FL staining of PBPs extracted from bacterial membranes; assay type: binding, E. coli strain DC2; conditions: peptides at 3 µM, membranes of E. coli DC2
Method: Staining of PBPs extracted from bacterial membranes with Bocillin FL was used to determine the binding of peptide 2 (and its all-D analogue) to other PBPs in E. coli[8].
Method was adapted from that described by Kocaoglu and Carlson[8]. E. coli strain DC2 cells were grown overnight at 37 °C then diluted 100-fold and allowed to grow at 37 °C to an OD600 of 0.5 in Lysogeny broth (LB). The cells were then centrifuged (3220 x g for 10 min at room temperature) and washed once in PBS (pH 7.4) then pelleted and resuspended in ice-cold PBS. Cells were sonicated (Fisherbrand™ Model 505 Sonic Dismembrator) on ice for five 10 s intervals with 15 s cooling time in between rounds. The membranes were collected by centrifugation (21,000 x g for 15 min at 4 °C) and resuspended the pellet in 100 µL PBS using a blunt needle. The resuspended membranes were incubated with the indicated compound for 15 min at room temperature then 10 µg ml^–1 BOCILLIN-Fl (Invitrogen) was added and reacted with the resuspended membranes for 10 min. […] The total protein content of each condition was normalised to 2.5 mg ml^–1 by measuring the absorbance at A280 and adjusting where necessary with the addition of PBS. […] Following fluorescence imaging, the gel was stained with InstantBlue Ultrafast protein stain (Abcam), washed twice in water and imaged in brightfield with an iBright FL1500.

[4] = tested on: Acinetobacter baumannii AR0275; assay: MIC; assay type: cell-based; conditions: caMHB, replicates listed
Method: as §2

[5] = tested on: Acinetobacter baumannii NCTC 12156; assay: MIC; assay type: cell-based; conditions: caMHB; replicates listed
Method: as §2

[6] = tested on: Citrobacter freundii AR0116; assay: MIC; assay type: cell-based; conditions: caMHB, replicates listed
Method: as §2

[7] = tested on: Citrobacter freundii B121; assay: MIC; assay type: cell-based; conditions: caMHB; replicates listed
Method: as §2

[8] = tested on: Enterobacter cloacae AR0032; assay: MIC; assay type: cell-based; conditions: caMHB; replicates listed
Method: as §2

[9] = tested on: Enterobacter cloacae AR0038; assay: MIC; assay type: cell-based; conditions: caMHB, replicates listed
Method: as §2

[10] = tested on: Enterobacter cloacae B173; assay: MIC; assay type: cell-based; conditions: caMHB; replicates listed
Method: as §2

[11] = tested on: Enterobacter cloacae KPC114; assay: MIC; assay type: cell-based; conditions: caMHB; replicates listed
Method: as §2

[12] = tested on: Escherichia coli ATCC BAA-2469; assay: MIC; assay type: cell-based; conditions: caMHB, replicates listed
Method: as §2

[13] = tested on: Escherichia coli NCTC 13441; assay: MIC; assay type: cell-based; conditions: caMHB, replicates listed
Method: as §2

Escherichia coli UTI89 = assay: MIC; assay type: cell-based; conditions: caMHB; replicates listed
Method: as §2

[14] = tested on: Klebsiella pneumoniae ATCC 43816; assay: MIC; assay type: cell-based; conditions: caMHB; replicates listed
Method: as §2

[15] = tested on: Klebsiella pneumoniae ATCC 700603; assay: MIC; assay type: cell-based; conditions: caMHB; replicates listed
Method: as §2

[16] = tested on: Klebsiella pneumoniae B454; assay: MIC; assay type: cell-based; conditions: caMHB, replicates listed
Method: as §2

Proteus mirabilis AR159 = assay: MIC; assay type: cell-based; conditions: caMHB, replicates listed
Method: as §2

[17] = tested on: Proteus mirabilis ATCC 43071; assay: MIC; assay type: cell-based; conditions: caMHB; replicates listed
Method: as §2

[18] = tested on: Pseudomonas aeruginosa ATCC 27853; assay: MIC; assay type: cell-based; conditions: caMHB; replicates listed
Method: as §2

[19] = tested on: Pseudomonas aeruginosa NCTC 13437; assay: MIC; assay type: cell-based; conditions: caMHB, replicates listed
Method: as §2

[20] = tested on: Klebsiella pneumoniae KPNIH1; assay: MIC; assay type: cell-based; conditions: caMHB, replicates listed
Method: as §2

T1 sequence (P0AD68 60-588): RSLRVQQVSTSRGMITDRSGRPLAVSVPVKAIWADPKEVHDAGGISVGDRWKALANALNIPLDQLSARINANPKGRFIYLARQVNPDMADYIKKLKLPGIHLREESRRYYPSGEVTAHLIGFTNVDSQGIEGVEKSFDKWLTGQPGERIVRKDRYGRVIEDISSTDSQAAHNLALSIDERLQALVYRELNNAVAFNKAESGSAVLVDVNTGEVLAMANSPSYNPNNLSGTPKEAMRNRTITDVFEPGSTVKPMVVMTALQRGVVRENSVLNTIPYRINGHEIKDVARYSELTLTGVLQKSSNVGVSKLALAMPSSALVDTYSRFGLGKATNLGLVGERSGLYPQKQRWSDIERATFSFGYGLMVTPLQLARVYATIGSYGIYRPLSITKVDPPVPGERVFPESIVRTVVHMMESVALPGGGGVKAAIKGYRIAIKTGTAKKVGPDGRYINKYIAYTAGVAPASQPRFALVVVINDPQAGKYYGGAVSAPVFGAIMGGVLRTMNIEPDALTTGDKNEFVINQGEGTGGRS

## CC(C)[C@@H]1NC(=O)[C@H](Cc2c[nH]c3ccccc23)NC(=O)[C@@H]2CCCN2C(=O)[C@@H]2CSCCC(=O)N3CN(CN(C3)C(=O)CCSC[C@H](NC(=O)[C@H](C)N)C(=O)N[C@@H](CO)C(=O)N[C@@H](Cc3ccccc3)C(=O)N3CCC[C@H]3C(=O)N[C@@H](CCCCN)C(=O)N2)C(=O)CCSC[C@@H](C(=O)N[C@@H](C)C(N)=O)NC(=O)CNC(=O)[C@H](CCC(=O)O)NC1=O [Peptide 2]
EcPBP3 [1]
  IC50 (nM) by fluorescence polarisation with Bocillin FL as tracer, Geometric mean (Lower 95% CI of geo. Mean; Upper 95% CI of geo. Mean, n=number of values): showed binding to EcPBP3
EcPBP3 [1]; read-out: IC50 (nM) by fluorescence polarisation with Bocillin FL as tracer, Geometric mean (Lower 95% CI of geo. Mean; Upper 95% CI of geo. Mean, n=number of values)
  IC50: 602 nM
EcPBP3 [2]
  Ki: < 9 nM
EcPBP3 [3]
  Kd: 5.23 nM
E. coli GKCW101 (WT)
  MIC E. coli GKCW101 (WT): > 128 µg/mL
E. coli GKCW102 (EcPore)
  MIC E. coli GKCW102 (EcPore): 0.5 to 2 µg/mL
E. coli GKCW102 (EcPore); listed as peptide 2
  MIC E. coli GKCW102 (EcPore): 0.5 to 2 µg/mL
E. coli ATCC 25922
  MIC E. coli ATCC 25922: > 16 µg/mL
PBPs in E. coli
  Binding to other PBPs in E. coli (Bocillin FL staining): bound only to the active site of E. coli PBP3

## ACSFPKCPWVEGCA* [Conjugate 2]
E. coli GKCW101 (WT)
  MIC E. coli GKCW101 (WT): 4 to 8 µg/mL
E. coli GKCW102 (EcPore)
  MIC E. coli GKCW102 (EcPore): 0.5 to 1 µg/mL
E. coli ATCC 25922
  MIC E. coli ATCC 25922: 1 to 2 µg/mL
E. coli ATCC 25922; caMHB, replicates listed, number in brackets
  MIC Escherichia coli ATCC 25922: 2,8 μg mL-1
[4]
  MIC Acinetobacter baumannii AR0275: > 64 µg/mL
[5]
  MIC Acinetobacter baumannii NCTC 12156: > 64 µg/mL
[6]
  MIC Citrobacter freundii AR0116: 8 µg/mL
[7]
  MIC Citrobacter freundii B121: 8 µg/mL
[8]
  MIC Enterobacter cloacae AR0032: 4 µg/mL
[9]
  MIC Enterobacter cloacae AR0038: 8 µg/mL
[10]
  MIC Enterobacter cloacae B173: 16 µg/mL
[11]
  MIC Enterobacter cloacae KPC114: 8 µg/mL
[12]
  MIC Escherichia coli ATCC BAA-2469: 8,8 μg mL-1
[13]
  MIC Escherichia coli NCTC 13441: 4,8 μg mL-1
Escherichia coli UTI89
  MIC Escherichia coli UTI89: 8 µg/mL
[14]
  MIC Klebsiella pneumoniae ATCC 43816: 8,16 μg mL-1
[15]
  MIC Klebsiella pneumoniae ATCC 700603: 16 µg/mL
[16]
  MIC Klebsiella pneumoniae B454: 16,32 μg mL-1
Proteus mirabilis AR159
  MIC Proteus mirabilis AR159: > 64 µg/mL
[17]
  MIC Proteus mirabilis ATCC 43071: > 64 µg/mL
[18]
  MIC Pseudomonas aeruginosa ATCC 27853: > 64 µg/mL
[19]
  MIC Pseudomonas aeruginosa NCTC 13437: > 64 µg/mL

## C[C@H]1COc2c(N3CCN(C)CC3)c(F)cc3c(=O)c(C(=O)O)cn1c23 [Levofloxacin, reference compound]
[4]; Acinetobacter baumannii, AR0275
  MIC: 2.2 µg/mL (≈ 6.09 µM)
[6]; Citrobacter freundii, AR0116
  MIC: > 2 µg/mL
[9]; Enterobacter cloacae, AR0038
  MIC: > 2 µg/mL
[12]; Escherichia coli, ATCCBAA2469
  MIC: > 2 µg/mL
[13]; Escherichia coli, NCTC13441
  MIC: > 2 µg/mL
[16]; Klebsiella pneumoniae, B454
  MIC: > 2 µg/mL
[20]
  MIC: > 2 µg/mL
Proteus mirabilis AR159; Proteus mirabilis, AR159
  MIC: 2.2 µg/mL (≈ 6.09 µM)
[19]; Pseudomonas aeruginosa, NCTC13437
  MIC: 2.2 µg/mL (≈ 6.09 µM)
